# Experiments:
# [1] = biological target: T1, adenylate cyclase (PTH receptor) in human SaOS-2/B10 cells (Homo sapiens, UniProt Q03431); assay: Adenylate cyclase assay, human osteosarcoma B10 cell line (SaOS-2/B10); format: cell-based; conditions: mean ± SEM, at least three experiments
# T1 construct: endogenous in cells; host or cells: SaOS-2/B10 human osteosarcoma cells
# T1 sequence (Q03431 27-593): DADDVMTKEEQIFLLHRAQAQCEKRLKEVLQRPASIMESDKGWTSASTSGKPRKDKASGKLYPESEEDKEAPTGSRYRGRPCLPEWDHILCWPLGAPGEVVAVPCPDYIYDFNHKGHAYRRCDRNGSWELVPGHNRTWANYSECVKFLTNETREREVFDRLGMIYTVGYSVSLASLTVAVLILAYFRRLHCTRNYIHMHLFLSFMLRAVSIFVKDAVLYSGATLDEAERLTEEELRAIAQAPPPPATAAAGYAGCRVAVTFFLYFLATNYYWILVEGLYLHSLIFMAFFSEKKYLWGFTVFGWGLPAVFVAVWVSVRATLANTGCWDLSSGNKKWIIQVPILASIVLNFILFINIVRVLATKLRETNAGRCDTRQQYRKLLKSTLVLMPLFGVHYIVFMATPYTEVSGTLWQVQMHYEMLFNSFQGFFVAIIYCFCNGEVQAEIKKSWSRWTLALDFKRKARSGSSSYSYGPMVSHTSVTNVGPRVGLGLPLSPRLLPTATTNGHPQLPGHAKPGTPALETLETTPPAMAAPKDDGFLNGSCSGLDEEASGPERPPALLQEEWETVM
# Protocol: (§1) SaSO-2/B10 cells cultures. The details of maintenance of this cell line in culture were reported previously (see Chorev, M., et al., Intl. J. Peptide & Protein Res. 36, 465-470 (1990)).
# (§2) PTH Receptor Binding and Adenylate Cyclase Assays. Kidney-based assays were performed with bovind renal cortical membranes following the procedures previously described (see Goldman, M. E., et al., Endocrinol. 123, 1468-1475 (1988)). Bone-based assays were performed with human SaOS-2/B10 cell cultures. Cyclic AMP was measured using the reported procedure (see Rodan, S. B., et al., J. Clin. Invest. 72, 1511-1515 (1983)), including modifications reported previously (see Chorev. M., et al., Intl. J. Peptide & Protein Res. 36, 465-470 (1990)). Receptor binding affinities for PTHrP analogs were obtained using cells plated in 24-wall dished in RPMI 1640 medium supplemented with 1% BSA, 20 mM HEPES, pH 7.5, and 0.1% azide. [Nle^8,^18, mono-^123 I-Tyr^4 ]bPTH(1-34)NH2 (50,000 cpm/well) was added to confluent monolayers in the absence or presence of varying amounts of analog in a final volume of 0.25 ml. Cultures were incubated at room temperature for 4 hours. Binding reactions were terminated by placing the cultures on ice and washing 4 times with ice cold phosphate buffered saline. Radioactivity associated with the cells was recovered by dissolving the cells in 1 ml of 1N NaOH.
# (§3) Data analysis. Inhibition constants for binding (Kb) and adenylate cyclase (Kl) were calculated following a published method (see Cheng, Y. C., et al., Biochem. Pharmacol. 22, 3099-3108 (1973)).
# [2] = biological target: T2, adenylate cyclase (PTH receptor) in bovine renal cortical membranes (Bos taurus, UniProt Q1LZF7); assay: Adenylate cyclase assay, bovine renal cortical membranes; format: biochemical; conditions: mean ± SEM, at least three experiments
# T2 construct: from tissue; host or cells: bovine renal cortical membranes
# T2 sequence (Q1LZF7 29-589): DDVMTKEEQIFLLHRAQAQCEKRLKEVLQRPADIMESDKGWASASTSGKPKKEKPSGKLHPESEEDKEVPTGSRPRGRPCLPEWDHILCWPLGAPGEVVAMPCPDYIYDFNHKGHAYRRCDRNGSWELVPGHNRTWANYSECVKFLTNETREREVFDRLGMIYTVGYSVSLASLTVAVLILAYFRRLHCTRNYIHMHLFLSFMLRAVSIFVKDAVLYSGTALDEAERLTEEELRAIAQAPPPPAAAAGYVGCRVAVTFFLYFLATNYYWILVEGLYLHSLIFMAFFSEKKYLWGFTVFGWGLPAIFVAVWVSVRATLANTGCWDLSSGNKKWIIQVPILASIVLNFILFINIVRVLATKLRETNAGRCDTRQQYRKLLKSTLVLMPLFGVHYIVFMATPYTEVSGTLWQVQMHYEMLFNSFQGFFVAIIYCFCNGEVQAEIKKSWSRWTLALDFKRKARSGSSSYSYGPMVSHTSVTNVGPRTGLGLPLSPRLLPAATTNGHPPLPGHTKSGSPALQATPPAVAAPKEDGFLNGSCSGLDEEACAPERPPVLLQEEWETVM
# Protocol: as §2, §3
# PTH receptor [3] = biological target: T3, PTH receptor (Homo sapiens, UniProt Q03431); assay: PTH receptor binding, human osteosarcoma B10 cell line (SaOS-2/B10); conditions: inhibiting binding of 95 pM 125I-[Nle8,18,Tyr34]bPTH(1-34)NH2 (footnote a), mean ± SEM, at least three experiments, read-out: Binding Kb
# T3 construct: endogenous in cells; host or cells: SaOS-2/B10 human osteosarcoma cells
# T3 sequence (Q03431 27-593): T1 sequence (Q03431 27-593)
# Protocol: as §1, §2, §3
# PTH receptor [4] = biological target: T4, PTH receptor (Bos taurus, UniProt Q1LZF7); assay: PTH receptor binding, bovine renal cortical membranes; conditions: inhibiting binding of 25 nM 125I-[Nle8,18,Tyr34]bPTH(1-34)NH2 (footnote c), mean ± SEM, at least three experiments, read-out: Binding Kb
# T4 construct: from tissue; host or cells: bovine renal cortical membranes
# T4 sequence (Q1LZF7 29-589): T2 sequence (Q1LZF7 29-589)
# Protocol: as §2, §3
"Ki ([1]; antagonizing 0.25 nM [Nle8,18,Tyr34]bPTH(1-34)NH2 (footnote b))","Ki ([2]; antagonizing 3 nM [Nle8,18,Tyr34]bPTH(1-34)NH2 (footnote d))",Ki (PTH receptor [3]),Ki (PTH receptor [4]),Km [1],Km [2],Substance
2.8 ± 1 nM,22 ± 5 nM,2.4 ± 0.5 nM,2 ± 0.1 nM,–,–,"Ac[Cys^8 (S-2'-(N-succinyl-β-alanyl-3-idotyramide), Leu^11, D-Trp^12 ]-PTHrP(8-34)NH2 [analog 2A]"
–,–,4.2 ± 0.7 nM,14 ± 2 nM,0.5 ± 0.04 nM,36 ± 7 nM,[Cys^35 (S-2'-(N-succinyl-β-alanyl-3-iodotyramide)]PTHrP (1-35)NH2 [analog 1A]
–,–,1.7 ± 0.2 nM,2 ± 0.2 nM,0.5 ± 0.06 nM,6.4 ± 0.7 nM,"[Nle^8,18,Lys^13 (ε-Biotinyl),Tyr^34,Cys^35 (S-2'-(N-succinyl-β-alanyl-3-iodotyramide)]bPTH(1-35)NH2 [analog 3A]"
